Experimental data reported in patent US10668067B2, “Pyridine sulfonamides” (AMGEN INC., priority 2016, dated 2020).

Biological target: human Nav1.7 (Homo sapiens (Human), UniProt Q15858)
Assay: Nav 1.7 In Vitro PX Assay (PatchXpress whole cell voltage clamp)
Type: cell-based
Conditions: in-vitro Nav 1.7 PX data
Outline: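 Partially inactivated channels (20–50% inactivation at holding potential) probed by 20 ms pulses to −10 mV repeated at 0.1 Hz, in stable human Nav1.7 HEK293 cells.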

Sequence of human Nav1.7 (Q15858 whole entry): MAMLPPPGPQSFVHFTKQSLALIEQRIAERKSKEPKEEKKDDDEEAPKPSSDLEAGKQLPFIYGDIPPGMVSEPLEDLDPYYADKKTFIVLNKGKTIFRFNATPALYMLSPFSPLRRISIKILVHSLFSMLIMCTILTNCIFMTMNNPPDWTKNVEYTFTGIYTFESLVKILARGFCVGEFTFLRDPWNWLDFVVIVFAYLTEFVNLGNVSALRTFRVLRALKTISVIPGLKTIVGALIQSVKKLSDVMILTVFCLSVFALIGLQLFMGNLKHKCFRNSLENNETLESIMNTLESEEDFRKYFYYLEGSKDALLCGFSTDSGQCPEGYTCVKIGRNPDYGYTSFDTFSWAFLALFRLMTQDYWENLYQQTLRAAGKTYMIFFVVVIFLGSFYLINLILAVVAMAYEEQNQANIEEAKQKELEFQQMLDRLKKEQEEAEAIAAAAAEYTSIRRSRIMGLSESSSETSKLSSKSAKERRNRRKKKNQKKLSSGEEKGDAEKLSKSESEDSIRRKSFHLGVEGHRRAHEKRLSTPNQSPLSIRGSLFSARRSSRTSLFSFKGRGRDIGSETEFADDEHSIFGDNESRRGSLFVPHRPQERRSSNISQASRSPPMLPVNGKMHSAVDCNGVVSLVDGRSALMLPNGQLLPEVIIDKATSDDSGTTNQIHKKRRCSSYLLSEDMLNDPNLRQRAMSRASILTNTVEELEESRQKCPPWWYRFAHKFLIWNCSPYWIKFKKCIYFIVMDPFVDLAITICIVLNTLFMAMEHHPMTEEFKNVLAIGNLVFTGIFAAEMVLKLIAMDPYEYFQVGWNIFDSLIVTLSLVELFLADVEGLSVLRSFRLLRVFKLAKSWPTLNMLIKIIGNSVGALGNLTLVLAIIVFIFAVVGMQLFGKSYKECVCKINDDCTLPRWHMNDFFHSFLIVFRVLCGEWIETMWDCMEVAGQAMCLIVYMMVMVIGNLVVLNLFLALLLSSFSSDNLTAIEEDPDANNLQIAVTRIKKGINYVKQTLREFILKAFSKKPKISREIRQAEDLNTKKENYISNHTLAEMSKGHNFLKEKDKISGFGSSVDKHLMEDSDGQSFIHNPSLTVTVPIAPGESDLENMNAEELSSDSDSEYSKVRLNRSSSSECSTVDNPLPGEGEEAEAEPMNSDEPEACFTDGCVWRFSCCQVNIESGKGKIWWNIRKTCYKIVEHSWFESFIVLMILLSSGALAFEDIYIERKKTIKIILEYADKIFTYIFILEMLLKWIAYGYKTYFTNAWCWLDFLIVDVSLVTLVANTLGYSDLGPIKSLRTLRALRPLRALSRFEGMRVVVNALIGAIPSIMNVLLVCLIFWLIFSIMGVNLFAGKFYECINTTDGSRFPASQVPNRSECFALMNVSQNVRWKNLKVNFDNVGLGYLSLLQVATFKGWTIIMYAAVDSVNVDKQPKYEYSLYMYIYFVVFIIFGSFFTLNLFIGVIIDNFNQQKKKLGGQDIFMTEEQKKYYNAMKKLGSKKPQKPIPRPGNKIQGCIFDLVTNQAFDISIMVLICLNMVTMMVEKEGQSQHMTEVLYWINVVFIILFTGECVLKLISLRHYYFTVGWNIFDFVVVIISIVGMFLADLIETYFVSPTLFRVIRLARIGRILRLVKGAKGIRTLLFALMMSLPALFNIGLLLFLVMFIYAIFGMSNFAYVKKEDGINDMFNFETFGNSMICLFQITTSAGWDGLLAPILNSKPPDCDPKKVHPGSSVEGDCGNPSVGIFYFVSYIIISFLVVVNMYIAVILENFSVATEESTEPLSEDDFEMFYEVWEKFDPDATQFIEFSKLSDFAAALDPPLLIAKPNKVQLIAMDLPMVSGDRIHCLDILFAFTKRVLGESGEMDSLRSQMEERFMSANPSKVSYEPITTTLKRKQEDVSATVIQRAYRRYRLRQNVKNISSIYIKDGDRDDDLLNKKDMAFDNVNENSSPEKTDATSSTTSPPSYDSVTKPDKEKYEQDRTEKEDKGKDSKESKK

IC50	SMILES
0.026 µM	CNC(=O)N(c1ccc(S(=O)(=O)Nc2ccnc(C)n2)cn1)c1cc(Cl)c(-c2ccc(F)c(C(F)(F)F)c2)cc1OC [Example 3-11, 6-((2-chloro-4′-fluoro-5-methoxy-3′-(trifluoromethyl)-4-biphenylyl)(methylcarbamoyl)amino)-N-(2-methyl-4-pyrimidinyl)-3-pyridinesulfonamide]
0.024 µM	CNC(=O)N(c1ccc(S(=O)(=O)Nc2ccncn2)cn1)c1cc(Cl)c(-c2ccc(F)c(C(F)(F)F)c2)cc1OC [Example 3-12, 6-((2-chloro-4′-fluoro-5-methoxy-3′-(trifluoromethyl)-4-biphenylyl)(methylcarbamoyl)amino)-N-4-pyrimidinyl-3-pyridinesulfonamide]
0.007 µM	CNC(=O)N(c1ccc(S(=O)(=O)Nc2cccnn2)cn1)c1cc(F)c(-c2ccc(F)c(OC(F)(F)F)c2)cc1OC [Example 3-13, 6-((2,4′-difluoro-5-methoxy-3′-(trifluoromethoxy)-4-biphenylyl)(methylcarbamoyl)amino)-N-3-pyridazinyl-3-pyridinesulfonamide]
0.017 µM	CNC(=O)N(c1ccc(S(=O)(=O)Nc2ncco2)cn1)c1cc(F)c(-c2ccc(F)c(OC(F)(F)F)c2)cc1OC [Example 3-14, 6-((2,4′-difluoro-5-methoxy-3′-(trifluoromethoxy)-4-biphenylyl)(methylcarbamoyl)amino)-N-1,3-oxazol-2-yl-3-pyridinesulfonamide]
0.461 µM	CNC(=O)N(c1ccc(S(=O)(=O)Nc2ccon2)cn1)c1cc(-c2cc(Cl)cc(OC)c2)ccc1OC [Example 4-1, 6-((3′-chloro-4,5′-dimethoxy-3-biphenylyl)(methylcarbamoyl)amino)-N-3-isoxazolyl-3-pyridinesulfonamide]
0.187 µM	CNC(=O)N(c1ccc(S(=O)(=O)Nc2ccon2)cn1)c1cc(-c2cccc(C(F)(F)F)c2)ccc1OC [Example 4-2, N-3-isoxazolyl-6-((4-methoxy-3′-(trifluoromethyl)-3-biphenylyl)(methylcarbamoyl)amino)-3-pyridinesulfonamide]
2.37 µM	CNC(=O)N(c1ccc(S(=O)(=O)Nc2ccon2)cn1)c1cc(-c2cccc(F)c2)ccc1OC [Example 4-3, 6-((3′-fluoro-4-methoxy-3-biphenylyl)(methylcarbamoyl)amino)-N-3-isoxazolyl-3-pyridinesulfonamide]
0.173 µM	CNC(=O)N(c1ccc(S(=O)(=O)Nc2ccon2)cn1)c1cc(-c2cc(F)cc(Cl)c2)ccc1OC [Example 4-4, 6-((3′-chloro-5′-fluoro-4-methoxy-3-biphenylyl)(methylcarbamoyl)amino)-N-3-isoxazolyl-3-pyridinesulfonamide]
0.442 µM	CNC(=O)N(c1ccc(S(=O)(=O)Nc2ccon2)cn1)c1cc(-c2ccc(C)c(Cl)c2)ccc1OC [Example 4-5, 6-((3′-chloro-4-methoxy-4′-methyl-3-biphenylyl)(methylcarbamoyl)amino)-N-3-isoxazolyl-3-pyridinesulfonamide]
0.09 µM	CNC(=O)N(c1ccc(S(=O)(=O)Nc2ccon2)cn1)c1cc(-c2cccc(C(F)(F)F)c2)c(Cl)cc1OC [Example 4-6, 6-((6-chloro-4-methoxy-3′-(trifluoromethyl)-3-biphenylyl)(methylcarbamoyl)amino)-N-3-isoxazolyl-3-pyridinesulfonamide]
0.891 µM	CNC(=O)N(c1ccc(S(=O)(=O)Nc2ccon2)cn1)c1cc(-c2cccc(F)c2)c(Cl)cc1OC [Example 4-7, 6-((6-chloro-3′-fluoro-4-methoxy-3-biphenylyl)(methylcarbamoyl)amino)-N-3-isoxazolyl-3-pyridinesulfonamide]
0.081 µM	CNC(=O)N(c1ccc(S(=O)(=O)Nc2ccon2)cn1)c1cc(-c2cc(Cl)cc(OC)c2)c(Cl)cc1OC [Example 4-8, 6-((3′,6-dichloro-4,5′-dimethoxy-3-biphenylyl)(methylcarbamoyl)amino)-N-3-isoxazolyl-3-pyridinesulfonamide]
0.076 µM	CNC(=O)N(c1ccc(S(=O)(=O)Nc2ccon2)cn1)c1cc(-c2ccc(C)c(Cl)c2)c(Cl)cc1OC [Example 4-9, 6-((3′,6-dichloro-4-methoxy-4′-methyl-3-biphenylyl)(methylcarbamoyl)amino)-N-3-isoxazolyl-3-pyridinesulfonamide]
0.007 µM	COc1cc(-c2cccc(C(F)(F)F)c2)c(Cl)cc1N(C(N)=O)c1ccc(S(=O)(=O)Nc2ccon2)cn1 [Example 5-1, 6-(1-(2-chloro-5-methoxy-3′-(trifluoromethyl)-[1,1′-biphenyl]-4-yl)ureido)-N-(isoxazol-3-yl)pyridine-3-sulfonamide]
0.01 µM	COc1cc(-c2ccc(Cl)c(F)c2)c(Cl)cc1N(C(N)=O)c1ccc(S(=O)(=O)Nc2ccon2)cn1 [Example 5-2, 6-(carbamoyl(2,4′-dichloro-3′-fluoro-5-methoxy-4-biphenylyl)amino)-N-3-isoxazolyl-3-pyridinesulfonamide]
0.031 µM	COc1cc(-c2cc(Cl)cc(C#N)c2)c(Cl)cc1N(C(N)=O)c1ccc(S(=O)(=O)Nc2ccon2)cn1 [Example 5-3, 6-(carbamoyl(2,3′-dichloro-5′-cyano-5-methoxy-4-biphenylyl)amino)-N-3-isoxazolyl-3-pyridinesulfonamide]
0.007 µM	COc1cc(-c2cc(OC)c(N(C(N)=O)c3ccc(S(=O)(=O)Nc4ccon4)cn3)cc2Cl)cc(C(F)(F)F)c1 [Example 5-4, 6-(carbamoyl(2-chloro-3′,5-dimethoxy-5′-(trifluoromethyl)-4-biphenylyl)amino)-N-3-isoxazolyl-3-pyridinesulfonamide]
0.016 µM	COc1cc(-c2cccc(OCC(F)(F)F)c2)c(Cl)cc1N(C(N)=O)c1ccc(S(=O)(=O)Nc2ccon2)cn1 [Example 5-5, 6-(carbamoyl(2-chloro-5-methoxy-3′-(2,2,2-trifluoroethoxy)-4-biphenylyl)amino)-N-3-isoxazolyl-3-pyridinesulfonamide]
0.167 µM	COC(=O)N(c1ccc(S(=O)(=O)Nc2ccon2)cn1)c1cc(Cl)c(-c2cccc(C(F)(F)F)c2)cc1OC [Example 6, Methyl (2-chloro-5-methoxy-3′-(trifluoromethyl)-[1,1′-biphenyl]-4-yl)(5-(N-(isoxazol-3-yl)sulfamoyl)pyridine-2-yl)carbamate]
0.068 µM	CNC(=O)N(c1ccc(S(=O)(=O)Nc2ccon2)cn1)c1cc(Cl)c(C#CC2CCCC2)cc1OC [Example 7, 6-((5-chloro-4-(cyclopentylethynyl)-2-methoxyphenyl)(methylcarbamoyl)amino)-N-3-isoxazolyl-3-pyridinesulfonamide]
0.849 µM	CNC(=O)N(c1ccc(S(=O)(=O)Nc2ccon2)cn1)c1cc(F)c(CCC(F)(F)F)cc1OC [Example 8, 6-((5-fluoro-2-methoxy-4-(3,3,3-trifluoropropyl)phenyl)(methylcarbamoyl)amino)-N-3-isoxazolyl-3-pyridinesulfonamide]
0.4 µM	CNC(=O)N(c1ccc(S(=O)(=O)Nc2ccon2)cc1)c1ccc(-c2ccc(Cl)c(C)c2)cc1OC [Example 9, 4-(1-(4′-chloro-3-methoxy-3′-methyl-[1,1′-biphenyl]-4-yl)-3methylureido)-N-(isoxazol-3-yl)benzenesulfonamide]
0.21 µM	CNC(=O)N(c1ccc(S(=O)(=O)Nc2ccon2)cc1)c1cc(F)c(-c2ccc(F)c(OC(F)(F)F)c2)cc1OC [Example 10, 4-(1-(2,4′-difluoro-5-methoxy-3′-(trifluoromethoxy)-[1,1′-biphenyl]-4-yl)-3-methylureido)-N-(isoxazol-3-yl)benzenesulfonamide]
